US7807675B2, “Hyaluronic acid-methotrexate conjugate” (priority 2004, dated 2010)
pIC50: −log10 of the molar value.

Legend:
[1] = system: human synovial cells derived from RA patients (HFLS-RA); experiment: Suppressive effect on proliferation of human synovial cells (HFLS-RA) stimulated by TNF-α; format: cell-based; conditions: TNF-α 10 ng/mL, 5 days, [3H]-deoxyuridine uptake, concentration calculated as MTX
From the text: (§1) Effects of the HA-MTX conjugates of the invention on cell proliferation induced by TNF-α stimulation were examined using human synovial cells (HFLS). The main lesion in rheumatoid arthritis (RA) occurs in the synovial tissue, and one of the features of RA is known to be that synovial cells abnormally proliferate to form a granulation tissue (pannus) and thereby destroy the cartilage and bone of the joint. Secondary synovitis is also observed in osteoarthritis (OA). […] Thus, a compound inhibiting the proliferation of synovial cells stimulated by an inflammatory cytokine, TNF-α, becomes a drug for suppressing the progression of the pathologic conditions of, or for treating RA and OA.
(§2) The sterile aqueous solutions of the HA-MTX conjugates in Example 3 were used as test substances. As HFLS, human synovial cells derived from RA patients (HFLS-RA, CA404-05, Lot No.: 1493) and human synovial cells derived from OA patients (HFLS-OA, CA400-05, Lot No.: 1442) were purchased from Cell Applications Ins for use.
(§3) HFLS was seeded at 5,000 cells/well on a 96-well plate (Falcon) and cultured for 3 hours in Iscove's modified Dulbecco's medium (IMDM) containing 5% FBS and 1× Antibiotic-Antimycotic (GIBOC). After cellular attachment, TNF-α (final concentration: 10 ng/mL) and each HA-MTX conjugate at each concentration was added, followed by cultivation for 5 days. Two days before the end of culture, was added 37 kBq/well of [^3H]-deoxyuridine in the cells (MORAVEK), followed by determining the uptake quantity (radioactivity) of [^3H]-deoxyuridine using a scintillation counter. Cells were recovered by unsticking them with 0.05% trypsin-0.2% EDTA.
(§4) Radioactivity determined in each of the experiments with each test substance was calculated as a relative value (% of control), using, as control, radioactivity in the group of cells cultured without adding any test substance. Since the concentration of a free carboxyl group is 2.49×10^−3 mol/L (1 g/401/L; 401 is the molecular weight of N-acetylglucosamine+glucuronic acid) for each 1 mg/mL of hyaluronic acid, the MTX concentration in each HA-MTX was calculated by multiplying the value by the conjugation rate of MTX. (For 1 mg/mL of HA-MTX conjugate with a conjugation rate of MTX of 1%, the concentration of MTX was 2.49×10^−5 mol/L) The value obtained was used to calculate the activity of inhibiting cell proliferation (IC50 value) by a 4-parameter logistic method (analysis software: GraphPad Prism 3.02 and 4.02).

[2] = system: mBSA-induced monoarthritis model; experiment: Suppressive effect on knee joint swelling in mBSA-induced monoarthritis model; format: in vivo, rat; conditions: for AUC (% of control) (mean ± SEM): AUC of knee joint swelling, control = HA-treated group, LEW/Crj rat, 50 μL into right knee joint 7 and 1 day before and 7 days after inducing arthritis
Experimental: An in vivo synovitis-suppressing effect of each HA-MTX conjugate of the invention was assessed on the basis of a suppressive effect on knee joint swelling in a methylated bovine serum albumin (mBSA)-induced monoarthritis model of rat. Since the mBSA-induced arthritis model employed in this experimental example is widely used as an antigen-induced arthritis model, and known to develop synovitis (Sven E. Andersson, et al., The Journal of Rheumatology (1998) 25: 9, 1772-7), the in vivo knee joint swelling-suppressing effect observed in this model conceivably represents a synovitis-suppressing effect. The compounds of the invention suppressing synovitis in vivo are useful as therapeutic drugs for joint diseases accompanied by synovitis (RA, OA, and the like).
The animal used was the LEW/Crj rat (6-week old male, from Charles River Laboratories Japan, Inc.). Into the flank of the rat was subcutaneously injected 0.5 mL of an emulsion prepared from a 2 mg/mL mBSA (Calbiochem) aqueous solution and an equal amount of Freund's complete adjuvant (Difco) 21 and 14 days before inducing arthritis. The arthritis was induced by administering 50 μL of a 2 mg/mL mBSA aqueous solution into the right knee joint. The left knee joint was untreated, and served as control in each individual. Each test substance (sterile aqueous solution) and the control drug hyaluronic acid were each administered into the right knee joint in an amount of 50 μL 7 and 1 day before and 7 days after inducing arthritis.
The determination of knee joint swelling involved measuring the widths of both knee joints with calipers to define the left/right difference (right knee diameter−left knee diameter) as a knee joint swelling. The width of each knee joint was measured at a frequency of twice a week from immediately before inducing arthritis to two weeks later to calculate AUC (an abbreviation for Area Under the Curve; here, it means an area under a curve with time for the joint swelling) from the transition thereof with time. At each measurement, the mean and standard deviation of AUC were calculated to perform an unpaired t-test between each test substance-treated group and the HA-treated group, and significant difference was judged to be present if the probability level is less than 5%. Statistical analysis used SAS version 6.12 or 8.02 (SAS Institute Japan). In addition, the AUC of each test substance was calculated, using that in the HA-treated group as a control, as a relative value (% of control) therefor.
To verify the usefulness of the HA-MTX conjugate of the invention, the suppressive effect on joint swelling was compared, in accordance with the method of Example 3, among: 1) a group treated with the HA-MTX conjugate (sterile aqueous solution) prepared in Example 3-10; 2) a group treated with a solution containing MTX of an amount equal to that of MTX contained in the HA-MTX conjugate; and 3) a group of treated with a mixture (HA+MTX) of MTX and hyaluronic acid (HA) of amounts equal to those contained in the conjugate. HA and vehicle (2 mM phosphate buffer, 0.9% NaCl) was used as controls. In this Experimental Example, Suvenyl (SVE, Chugai Pharmaceutical Co., Ltd.) was used as HA. The time course of knee joint swelling in this test is shown in FIG. 1, and the AUC thereof in FIG. 2.

[3] = system: human synovial cells derived from OA patients (HFLS-OA); experiment: Suppressive effect on proliferation of human synovial cells (HFLS-OA) stimulated by TNF-α; format: cell-based; conditions: TNF-α 10 ng/mL, 5 days, [3H]-deoxyuridine uptake, concentration calculated as MTX
From the text: as §1, §2, §3, §4

Compound	pIC50 [1]	alleviating effect on synovitis ([2]; Experimental Example 4, arthritis model, amounts equal to those in the conjugate of Example 3-10)	pIC50 [3]	AUC (% of control) (mean ± SEM) [2]	suppressive effect on the joint swelling ([2]; Experimental Example 4, compared to MTX alone or the mixture of MTX and HA in equal amounts, FIGS. 1 and 2)
CN(Cc1cnc2nc(N)nc(N)c2n1)c1ccc(C(=O)N[C@@H](CCC(=O)O)C(=O)O)cc1 [MTX alone, methotrexate]	6.96	neither MTX alone nor the mixture of HA and MTX had a sufficient alleviating effect on synovitis	6.51		
MTX-α-Ile-NHC10H20O3NHCO—O—[HA] [Example 3-16]			6.64	65.5 ± 4.4 % of control	
MTX-α-PheGly-NHC10H20O3NHCO—O—[HA] [Example 3-15]			6.35	50.1 ± 4.9 % of control	
MTX-α-PhePhe-NHC10H20O3NHCO—O—[HA] [Example 3-1]	5.92				
MTX-α-PhePhe-NHC10H20O3NHCO—O—[HA] [Example 3-2]	6.34				
MTX-α-PhePhe-NHC10H20O3NHCO—O—[HA] [Example 3-3]	7.02			59.7 ± 5.4 % of control	
MTX-α-PhePhe-NHC10H20O3NHCO—O—[HA] [Example 3-4]				53.6 ± 5.4 % of control	
MTX-α-PhePhe-NHC10H20O3NHCO—O—[HA] [Example 3-5]				46.6 ± 4.0 % of control	
MTX-α-PhePhe-NHC10H20O3NHCO—O—[HA] [Example 3-6]			5.85	69.7 ± 7.2 % of control	
MTX-α-PhePhe-NHC10H20O3NHCO—O—[HA] [Example 3-7]			6.39	47.7 ± 4.3 % of control	
MTX-α-PhePhe-NHC10H20O3NHCO—O—[HA] [Example 3-8]			6.85		
MTX-α-PhePhe-NHC10H20O3NHCO—O—[HA] [Example 3-9]			6.74	48.4 ± 2.9 % of control	
MTX-α-PhePhe-NHC10H20O3NHCO—O—[HA] [Example 3-10]			7.11	42.3 ± 4.8 % of control	markedly strong suppressive effect on the joint swelling in the arthritis model compared to that of MTX alone or the mixture of MTX and HA
MTX-α-PhePhe-NHC10H20O3NHCO—O—[HA] [Example 3-11]			4.48	67.1 ± 8.0 % of control	
MTX-α-PhePhe-NHC10H20O3NHCO—O—[HA] [Example 3-12]			5.70	49.2 ± 1.2 % of control	
MTX-α-PhePhe-NHC10H20O3NHCO—O—[HA] [Example 3-13]			6.54	42.0 ± 4.5 % of control	
MTX-α-PhePhe-NHC10H20O3NHCO—O—[HA] [Example 3-14]			5.01		
